# Reference: patent publication US20220096516A1, “OLIGONUCLEOTIDE MOLECULE AND APPLICATION THEREOF IN TUMOR THERAPY” (Ractigen Therapeutics, priority 2019, published 2022)
# d = 2'-deoxy (DNA); r = 2'-OH (RNA)
# Key:
# Type in all cases: cell-based, human
# [1] = tested on: LHPP gene; test: High-throughput screening of saRNAs targeting LHPP promoter: LHPP mRNA by one-step RT-qPCR in Huh7 cells; settings: 10 nM saRNA, 72 hours, relative to control (Mock)
# Outline: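 Huh7 cells were transfected with 10 nM saRNA using RNAiMax and lysed 72 h later. LHPP mRNA was quantified by one-step RT-qPCR in triplicate wells. Expression was normalised to HPRT1 and TBP and given as fold change versus mock-transfected cells.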
# [2] = tested on: Huh7 cells; test: Cell viability by CCK-8 method, Huh7; settings: Huh7, 10 nM, 72 h, FIG. 6B
# Protocol: The 290 saRNAs targeting the LHPP promoter were individually transfected into Huh7 cells, and 72 hour later, one-step RT-qPCR was employed to analyze the expression levels of LHPP mRNA and cell viability was detected by the CCK-8 method.
# (§1) The cell viability was detected by the following CCK-8 method: the cCells were plated into a 96-well plate at 3-5×10^3 cells/well, cultured overnight, and transfected with the oligonucleotide duplexes. After 72 hour of transfection, 10 uL of CCK-8 solution (Dojindo Molecular Technologies) was added into each well. After 1 hour of incubation at 37° C., a microplate reader was used to measure absorbances at 450 nm.
# In order to further evaluate the effect of LHPP saRNAs in inducing the mRNA expression of the LHPP gene and inhibiting the proliferation of cancer cells, eight screened saRNAs (RAG7-132, RAG7-133, RAG7-139, RAG7-177, RAG7-178, RAG7-694, RAG7-707 and RAG7-892) each were transfected into the liver cancer cell lines Huh7 (Medical Cell Resource Center, Tohoku University, Japan), HepG2 (ATCC), Hep3B (ATCC), Li-7 (Medical Cell Resource Center, Tohoku University, Japan) and SK-HEP-1 (ATCC), a lung cancer cell line A549 (ATCC), a bladder cancer cell line T24 (ATCC), a prostatic cancer cell line PC3 (ATCC), and a glioma cell line U87MG (ATCC). The mRNA expression and cell viability of the transfected cells were measured.
# [3] = tested on: SK-HEP-1 cells; test: Cell viability by CCK-8 method, SK-HEP-1; settings: SK-HEP-1, 10 nM, 72 h, FIG. 6B
# Protocol: 8 LHPP promoter-targeting saRNAs were individually transfected into liver cancer cells at 10 nM for 72 h. In FIG. 6A, the expression level of LHPP mRNA was analyzed by RT-qPCR. In FIG. 6B, cell viability in the saRNA treatment group was evaluated by the CCK-8 method and recorded as a percentage relative to the viability of cells in a control (Mock) treatment group.
# as §1, with “nm. […]” for “nm.”
# [4] = tested on: U87MG cells; test: saRNA in combination with chemical drugs, CCK-8 viability and combination index (Compusyn), U87MG
# Protocol: The sRNAs were transfected into cancer cells at different concentrations in combination with different chemical drugs. In FIG. 9A, cell viability in the saRNA treatment group was evaluated by the CCK-8 method and recorded as a percentage relative to the viability of cells in a control (Mock) treatment group. In FIG. 9B, Compusyn© version 1.0 software was used to draw a combination index graphs; and to calculate combination index values as shown in FIG. 9C.
# The compounds used in the study included: Sorafenib (Sora) (SELLECK, S1040), Lenvatinib (Lenv) (SELLECK, S1164), Regorafenib (Rego) (SELLECK, S1178), and Cabozantinib (Cabo) (SELLECK, S1119). Cells were transfected with each candidate saRNAs at varying concentration gradients for 24 hours. Thereafter, the aforementioned compounds were added to the transfected cells at a concentration of 5 μM and the cells were incubated with the compounds for 48 hours. Cell viability was measured using the CCK-8 method. Compusyn© version 1.0 software (ComboSyn, Inc. Paramus, N.J., USA) was used to analyze the combination index (CI) of drugs, wherein CI<1 represented a synergistic effect, CI=1 represented an additive effect, and CI>1 represented an antagonistic effect.
substance,measurement,setting,value
"RAG7-133: saRNA duplex; sense GCUCUUUGUCCGCUGAUCUTT (SEQ ID NO: 1), antisense AGAUCAGCGGACAAAGAGCTT (SEQ ID NO: 165) (sugars from the 5' end r19 d2, backbone not given here)",Fold of changes in relative LHPP mRNA expression level,[1],2.54 fold
same,Fold of changes in relative LHPP mRNA expression level (log2),[1],1.35 log2
same,"cell proliferation (cell viability, CCK-8)",[2],inhibited cell proliferation
same,"cell proliferation (cell viability, CCK-8)",[3],inhibited cell proliferation
same,combination index (CI),[4]; saRNA 1.0 nM to 100 nM with Cabozantinib 5 μM,< 0.1
same,combination index (CI),[4]; saRNA 1.0 nM to 100 nM with Lenvatinib 5 μM,< 0.1
same,combination index (CI),"[4]; saRNA with all the four compounds (Sorafenib, Lenvatinib, Regorafenib, Cabozantinib) 5 μM",< 1
